Experimental data reported in US20070037800A1, “Method of treating neurological disorders using clotrimazole and derivatives thereof” (EnVivo Pharmaceuticals, Inc., priority 2005, published 2007).
“And” between values parts separate entries of the source, which are not always exact repeats. Equal entries are not always repeated.

Tests used:
[1] = tested on: HD model flies (elav-GAL4 UAS-htt128Q); experiment: Assay of locomotor activity (climbing speed) using the transgenic Drosophila HD model; format: in vivo; parameters: Early Speed Effect Size, Summary / Late Speed Effect Size, Summary / Early Speed Effect Size / Late Speed Effect Size / Early Speed Adj Value / Late Speed Adj Value / Early Speed Effect Size, combined campaigns / Late Speed Effect Size, combined campaigns: unit not given here; details: for Early Speed Effect Size, combined campaigns / Early Speed Percent TSA, combined campaigns / Late Speed Effect Size, combined campaigns / Late Speed Percent TSA, combined campaigns: drawing 84, drawing 89
Method: Female “activator” or “driver” flies were engineered to contain the neuronal specific drivers elav-GAL4 or nirvana-GAL4 in a heat shock-hid Y (phs-hidY or HS-hid+ on Y chomosome) background (Starz-Gaiano et al., 2001). The hid gene is a pro-apoptotic gene, which is expressed in this line by a heat inducible promoter. These flies can be heat shocked in bottles twice over 2 days for 2 hours to kill male larvae and thereby produce massive numbers of elav-GAL4 or nirvana-GAL4 virgin females.
For the mass production of males (either UAS-htt128Q[F27B]/UAS-htt128Q[F27B], the disease transgenes were moved into lines that contain an attached X-chromosome with the same phs-hid element (X^XPhs-hidY) used above. In this scheme the hid gene is present only in female flies and therefore is used to produce large numbers of male flies by heat shock. The massive collection of virgin female elav-GAL4 flies are crossed with the massive collection of males that contain the silent disease-transgene. Their progeny, the F1 generation, are the “assay flies” (e.g., elav-GAL4UAS-htt128Q[F27B]). These assay flies are robotically distributed into drugged assay vials.
The HD Drosophila model express exons 1 to 4 of the human huntingtin gene with 128Q repeats in exon 1. The construct was cloned into the Drosophila transformation vector, pUAST. These were then crossed to GAL4 driver lines that direct expression either to the eye (GMR-GAL4 promoter) or to neurons (elav-GAL4 promoter). […] Progressive degeneration of the photoreceptors was observed after several days of adult life. The properties of the HD128Q flies were consistent with those reported by others for two other strains in which exon-1 containing expanded repeats was expressed in the eye (Jackson et al., 1998; Steffan et al., 2001—US20040142859). To test the effects on motor function of the HD mutation, HD128Q lines were examined in which the transgene was expressed in all neurons. Motor function was assayed by tapping flies in a vial to the bottom and measuring the number of flies that are able to climb to a specified height within a specific length of time. When tapped to the bottom of a vial, wild-type flies rapidly climb to the top, where most of them remain. […] The decline in motor performance was progressive, leading to early death. […] The HD128Q model thus has a functional deficit that in its phenotypic and neuropathological characteristics appears to be related to that seen in the human disease. Moreover, as the deficit is quantifiable and reproducible, it is suitable for automated high-throughput screening.
Standard environmental conditions were followed to establish that different metrics detect differences between disease and control flies. A comparison of compound-treated HD flies and untreated HD flies was also included. The positive control compound tested was the Histone Deacetylase (HDAC) inhibitor Trichostatin-A (TSA).
In an assay run (typically corresponding to one day of an entire multi-day assay) the following process was followed. Each tube was dropped onto a surface, causing the flies to fall to the bottom of the tube and be subjected to impact shock stimulation. Their immediate negative geotaxis response to that event was thereafter captured in a 7.5 second movie. For each tube, this step was repeated five times, giving a total of five repeat videos per tube and run. The raw data for each video were analyzed and trajectories following the movements of individual flies in a tube were generated. The method for analyzing fly trajectories is described in published U.S. Patent Application 2004/0076318A1, which is hereby incorporated by reference in its entirety. The trajectories consisted of a list of x- and y-coordinates mapping out the positions of all the flies in the video, as well as measurements of size, orientation, length and width of the flies, with one list entry for every frame from when the fly started moving in one frame until it stopped in another. […]

[2] = tested on: KA-induced lesion in C57B1/6N mice; details: intra-striatal KA, Cosi et al., 2004; cited from earlier work
[3] = food conc 100, days 8 to 10, vs DMSO carrier, single campaigns
[4] = food conc 200, campaign drawing 91, day range not given, late by column position
[5] = conc 100, days 1 to 7, campaigns drawing 83
[6] = conc 100, days 8 to 10, campaigns drawing 83
[7] = conc 300, days 1 to 7, campaigns drawing 80, drawing 83, drawing 85, drawing 88
[8] = conc 300, days 8 to 10, campaigns drawing 80, drawing 83, drawing 85, drawing 88
[9] = food conc 100 (unit not printed; b38: μM), days 1 to 7, single campaigns
[10] = food conc 100, days 8 to 10, single campaigns
[11] = conc 100, days 1 to 7, campaigns drawing 80, drawing 83, drawing 88
[12] = conc 100, days 8 to 10, campaigns drawing 80, drawing 83, drawing 88

## Cl.FC(F)(F)c1cccc(C(c2ccccc2)(c2ccccc2)n2ccnc2)c1 [1-(3-(trifluoromethyl)trityl)imidazole hydrochloride]
[1]; vs carrier controls, metrics early speed (days 1-7) and late speed (days 8-10)
  Effect in Drosophila model of HD: had therapeutic effect

## Fc1ccc(C(c2ccccc2)(c2ccc(F)cc2)n2ccnc2)cc1
[1]; food conc 50 (unit not printed; b38: μM), days 1 to 7, vs DMSO carrier, single campaigns
  Early Speed Effect Size: 0.31
[1]; food conc 50, days 1 to 7, effect size as percentage of positive control TSA, single campaigns
  Early Speed Percent TSA: 16.8%
[1]; food conc 50, days 8 to 10, effect size as percentage of TSA, single campaigns
  Late Speed Percent TSA: 12.5%
[1]; food conc 50, days 8 to 10, vs DMSO carrier, single campaigns
  Late Speed Effect Size: 0.33
[1]; food conc 100, days 1 to 7, effect size as percentage of TSA, single campaigns
  Early Speed Percent TSA: 56.8%
[1]; food conc 100, days 1 to 7, vs DMSO carrier, single campaigns
  Early Speed Effect Size: 1.04
[1]; food conc 100, days 8 to 10, effect size as percentage of TSA, single campaigns
  Late Speed Percent TSA: 49.9%
[1]; [3]
  Late Speed Effect Size: 1.32
[1]; food conc 200 (unit not given), campaign drawing 91, day range not given, early by column position
  Early Speed Effect Size: 1.23
[1]; food conc 200, campaign drawing 91, day range not given, early by column position
  Early Speed Percent TSA: 67.2%
[1]; [4]
  Late Speed Effect Size: 0.8
  Late Speed Percent TSA: 30.2%

## Clc1ccccc1C(c1ccccc1)(c1ccccc1)N1CCOCC1 [Example 1(f), 4-[(2-Chlorophenyl)-diphenylmethyl]-morpholine]
other
  melting point: 205 °C

## FC(F)(F)c1cccc(C(c2ccccc2)(c2ccccc2)N2CCOCC2)c1 [Example 1(g), 4-[(3-Trifluoromethylphenyl)-diphenylmethyl]-morpholine]
other
  melting point: 158 to 160 °C

## NC(=O)c1ccccc1 [Benzamide]
[2]
  KA-induced decreases in striatal levels of NAD+ and ATP: partially prevented
  KA-induced lesions and astrogliosis: partially prevented

## FC(F)(F)c1cccc(C(c2ccccc2)(c2ccccc2)n2ccnc2)c1 [1-(3-(TRIFLUOROMETHYL)TRITYL)IMIDAZOLE, 1-(3-(trifluoromethyl)trityl)imidazole]
[1]; [5]
  Early Speed Effect Size, combined campaigns: −0.159
  Early Speed Percent TSA, combined campaigns: −4.3%
[1]; [6]
  Late Speed Effect Size, combined campaigns: 0.344
  Late Speed Percent TSA, combined campaigns: 7.6%
[1]; [7]
  Early Speed Effect Size, combined campaigns: 1.003
  Early Speed Percent TSA, combined campaigns: 45.6%
[1]; [8]
  Late Speed Effect Size, combined campaigns: 1.798
  Late Speed Percent TSA, combined campaigns: 68.2%
[1]; [9]
  Early Speed Adj Value: 10.37 and 10.38 and 10.47
[1]; [10]
  Late Speed Adj Value: 5.094 and 5.776 and 5.811
[1]; food conc 300 (unit not given), days 1 to 7, single campaigns
  Early Speed Adj Value: 11.11 and 10.33 (2×) and 10.9 and 11.1 and 11.02
[1]; food conc 300, days 8 to 10, single campaigns
  Late Speed Adj Value: 7.096 and 5.024 and 5.921 and 7.137 and 6.976 and 6.601
[1]; food conc 300, days 8 to 10, vs DMSO carrier, single campaigns
  Late Speed Effect Size: 2.88 and 1.62 and 1.96

## c1ccc(C(c2ccccc2)(c2ccccc2)n2ccnc2)cc1 [1-triphenylmethyl imidazole]
[1]; [11]
  Early Speed Effect Size, combined campaigns: 0.186
  Early Speed Percent TSA, combined campaigns: 9.6%
[1]; [12]
  Late Speed Effect Size, combined campaigns: 0.179
  Late Speed Percent TSA, combined campaigns: 6.9%
[1]; [9]
  Early Speed Adj Value: 10.62 and 9.998 and 10.71 and 11.18 and 10.51 and 10.31
[1]; food conc 100 (unit not printed; b38: μM), days 1 to 7, single campaigns, listed as 1-(triphenylmethyl)imidazole
  Early Speed Adj Value: 10.62 and 10.71
[1]; [10]
  Late Speed Adj Value: 5.547 and 5.811 and 4.932 and 5.407 and 5.092 and 5.877
[1]; food conc 100, days 8 to 10, single campaigns, listed as 1-(triphenylmethyl)imidazole
  Late Speed Adj Value: 5.81 and 5.41
[1]; [3]
  Late Speed Effect Size: 0.86 and 0.62
